Data published in patent US20110003844A1, “REGULATION OF CARDIAC CONTRACTILITY AND HEART FAILURE PROPENSITY” (Children's Hospital Medical Center, priority 2003, published 2011).
Entries after “also recorded” stand apart in the source; their conditions may differ. Read-outs that look alike come from different tables or passages of the source.

How the values were obtained:
PKCα = target: T1, PKCα (Rattus norvegicus, UniProt P05696); experiment: confocal immunohistochemistry of PKCα localization in adult cardiomyocytes; assay type: cell-based; conditions: adult rat cardiomyocytes in culture, acute PMA stimulation
T1 construct: confocal micrographs of PKCα protein localization in adult rat cardiac myocytes at baseline (PKCα) or after PMA; endogenous in cells; host or cells: adult rat cardiomyocytes in culture

PKCα-GFP = experiment: translocation of PKCα-GFP indicator polypeptide, confocal microscopy; assay type: cell-based; conditions: neonatal rat cardiomyocytes, PMA 60 minutes
Description: A PKCα indicator was prepared by operably linking a nucleotide sequence encoding PKCα to a nucleotide sequence encoding green fluorescence protein (GFP). An expression cassette comprising the PKCα-GFP nucleotide sequence was prepared. Adenovirus comprising the PKCα-GFP expression cassette was prepared.
Neonatal rat cardiomyocytes were cultured in plastic dishes and incubated until the appropriate density was reached. The cardiomyocytes were infected with an adenovirus encoding PKCα-GFP. The cultures were incubated for 24 hours. After 24 hours the cells were incubated with either DMSO alone (the vehicle treatment) or DMSO and PMA for 60 minutes. The cells were fixed and examined by confocal microscopy.

PKCα−/− hearts = experiment: ex vivo working heart preparation, acute PMA infusion, PKCα null hearts; parameters: species or system mouse
Description: (§1) Hearts were isolated from four wild-type and four PKCα −/− (PKCα null) transgenic mice. The isolated hearts were infused with PMA at 9 different concentrations ranging from 8×10^−11 through 8×10^−7 M. Acute PMA infusion of each concentration occurred for a 7 minute period. The hearts were measured for maximal and minimal dP/dt in systole and diastole respectively.

wildtype mouse hearts = experiment: ex vivo working heart preparation, acute PMA infusion, wildtype hearts
Description: as §1

[1] = tested on: isolated ventricular myocytes from adult rats; conditions: 10^−7 M, 1 Hz, 1 mM calcium; cited from earlier work
[2] = tested on: isolated cardiac myocytes and whole guinea-pig hearts; conditions: cited from earlier work
[3] = tested on: isolated chicken ventricular myocytes; conditions: 1 μM drug; cited from earlier work
[4] = tested on: normal Sprague-Dawley and Lewis rats; experiment: in vivo cardiac contractility and hemodynamics in anesthetized normal rats; parameters: species or system rat
Description: Selected PKCα inhibitors are evaluated in both naive rats and rats with myocardial infarction (MI) for effects on cardiac contractility and hemodynamics. The effects of inhibitors on cardiac contractility and hemodynamics are evaluated in naïve and MI rats as follows. The animals are anesthetized with isoflurane. A femoral artery is isolated and cannulated for the measurement of systemic blood pressure. A jugular vein is isolated and cannulated for the intravenous infusion of inhibitor. The right carotid artery is isolated and a Millar conductance catheter is inserted to the left ventricle (LV) of the heart. The LV systolic pressure, end-diastolic pressure, +maximum dP/dt, −minimum dP/dt, and heart rate are derived from the LV pressure waveform. Mean arterial blood pressure is derived from the systemic blood pressure waveform. Data are recorded continuously and derived using computerized data acquisition software (Notocord or Powerlab). After a period of stabilization, PKCα inhibitors are infused at the following infusion doses in naïve rats: 0.1, 0.3, 1.0, 3.0, 10, 30, 100, 300 and 1000 nmol/kg/min. The infusion of each dose is allowed to run for at least five minutes. In MI rats, the infusion doses are as follows: 10, 30, 100, 300, and 1000 nmol/kg/min for at least five minutes. Equivalent infusion volumes are administered to separate, vehicle-control naïve and MI animals. At the end of the test infusions, 5.0 μg/kg/min of dobutamine is infused.

MI rats = experiment: in vivo cardiac contractility in anesthetized rats with myocardial infarction; parameters: species or system rat
Description: Selected PKCα inhibitors are evaluated in both naive rats and rats with myocardial infarction (MI) for effects on cardiac contractility and hemodynamics.
Male, Sprague-Dawley or Lewis rats weighing between 225-500 gm are anesthetized with isoflurane and an MI is induced as follows. A thoracotomy at the fourth or fifth intercostal space is done, the heart is exposed and the pericardium is opened. A 5-0 suture is placed around the left descending coronary artery 2-4 mm from its origin and permanently tied. The ribs, muscle and skin are separately closed and the animal is allowed to recover. Twenty to twenty-three weeks after surgery the animals are used to evaluate the effects of PKCα inhibitors on cardiac contractility and hemodynamics.
The effects of inhibitors on cardiac contractility and hemodynamics are evaluated in naïve and MI rats as follows. The animals are anesthetized with isoflurane. A femoral artery is isolated and cannulated for the measurement of systemic blood pressure. A jugular vein is isolated and cannulated for the intravenous infusion of inhibitor. The right carotid artery is isolated and a Millar conductance catheter is inserted to the left ventricle (LV) of the heart. […] Data are recorded continuously and derived using computerized data acquisition software (Notocord or Powerlab). […]

[5] = tested on: adult wildtype mouse hearts; experiment: ex vivo working heart preparation, Ro-32-0432 infusion
Description: Mice from all genotypes or treatment groups were anesthetized with isoflurane, and echocardiography was performed using a Hewlett Packard 5500 instrument with a 15-MHZ microprobe. Echocardiographic measurements were taken on M-mode in triplicate from four separate mice per group. The isolated ejecting mouse heart preparation used in the present study has been described in detail previously (Gulick et al. (1997) Circ. Res. 80:655-664), as was the close-chested working heart model employed here (Lorenz et al. (1997) Am. J. Physiol. 272:H1137-H1146).
The relatively selective PKCα/β inhibitory compound Ro-32-0432 [2-{8-[(Dimethylamino)methyl]-6,7,8,9-tetrahydropyrido[1,2-a]indol-3-yl}-3-(1-methylindol-3-yl)maleimide, HCl Salt] [3-{8-[(Dimethylamino)methyl]-6,7,8,9-tetrahydropyrido[1,2-a]indol-10-yl}-4-(1-methylindol-3-yl)-1H -pyrrole-2,5-dione, HCl Salt] was used as a means of directly examining the effects of acute PKCα inhibition on cardiac function and contractility using an ex vivo working heart preparation. The working heart preparation separates the inherent pump function of the heart from potential alterations in total vascular resistance as might occur if the drug were infused in vivo.
Working adult wildtype mouse hearts were infused with vehicle control (10% DMSO) or Ro-32-0432 in 10% DMSO at concentrations ranging between 4×10^−10 through 4'10^−6M. Four animals were analyzed in the Ro-32-0432 group and compared with three animals in the vehicle control group. […] The average heart rate of the vehicle and drug treated groups was 351+/=3 and 292+/−6 beats per minute, respectively. […] The approximate 20% change in acute contractile performance in the Ro-32-0432 treated group is similar to the increase in cardiac function observed in PKCα null mice.

PKC isoforms = conditions: cited from earlier work
[6] = 1000 nmol/kg/min i.v. infusion, 5 min, n=3

For `CCCCCCCCCCCCCC(=O)O[C@@H]1[C@@H](C)[C@@]2(O)[C@@H](C=C(CO)C[C@]3(O)C(=O)C(C)=C[C@@H]23)[C@@H]2C(C)(C)[C@]12OC(C)=O` [PMA, phorbol myristate acetate], which PKCα protein localization (PKCα) is on record?
The PKCα protein localization was “rapid translocation”.

What about the PKCα-GFP localization (PKCα-GFP) of the same molecule?
Its PKCα-GFP localization is “highly localized and punctate staining pattern; also recorded: robust redistribution of PKCα-GFP”.

What about the functional performance (PKCα−/− hearts; highest concentrations of PMA) of the same molecule?
The functional performance was “only a mild depression in functional performance”.

And the inotropic effect (PKCα−/− hearts; low doses of PMA)?
Its inotropic effect is “immediate positive inotropic effect”.

And the “contractile performance (Maximum dP/dt or Minimum dP/dt)” value (wildtype mouse hearts; 8×10^−11 through 8×10^−9 M)?
The value was “essentially no effect”.

What about the functional performance (wildtype mouse hearts; concentrations higher than 8×10^−9 M) of the same molecule?
The functional performance was “marked decrease in functional performance”.

What about the “twitch amplitude, of control” value [1] of the same molecule?
The value was “approximately 60%”.

And the inotropic response ([2]; 10^−12 M PMA)?
Its inotropic response is “significant positive inotropic response”.

What about the inotropic response ([2]; concentrations higher than 10^−10 M PMA) of the same molecule?
Its inotropic response is “negative inotropic response”.

And the “maximum decrease in the amplitude of cell shortening” value [3]?
The value was 54%.

With `CN(C)C[C@@H]1CCn2cc(c3ccccc32)C2=C(C(=O)NC2=O)c2cn(c3ccccc23)CCO1` [LY333531] as the molecule, how does the “maximum dP/dt increase compared to baseline” value [4, 6] read?
The value was 28%.

What about the “minimum dP/dt increase compared to baseline” value [4, 6] of the same molecule?
The value was 17%.

What about the heart rate ([4]; 1000 nmol/kg/min, baseline 315±17, not statistically significant) of the same molecule?
Its heart rate is 294±8 beats per minute.

What does the source list for `[H]/N=C(/N)SCCCn1cc(C2=C(c3cn(C)c4ccccc34)C(=O)NC2=O)c2ccccc21` [Ro-31-8220]?
inotropic benefit compared with dobutamine (MI rats; dobutamine 5.0 μg/kg/min for 5 minutes): greater than that seen with dobutamine; percent increase in maximum dP/dt from baseline (MI rats; dose dependent i.v. infusion 10-1000 nmol/kg/min, significance (P<0.05) at 300 nmol/kg/min, n=4): 21%

What does the source list for “2-{8-[(Dimethylamino)methyl]-6,7,8,9-tetrahydropyrido[1,2-a]indol-3-yl}-3-(1-methylindol-3-yl)maleimide, HCl Salt [Ro-32-0432]”?
change in acute contractile performance ([5]; Ro-32-0432 treated group, similar to PKCα null mice): ~20%; average heart rate of drug treated group ([5]; during infusion, 295+/−26 before treatment): 292+/−6 beats per minute; increase in acute contractile function, measured as maximum dP/dt ([5]; infused at 4×10^−10 to 4×10^−6 M, 7 min per concentration, values summated, average dosage approx 1×10^−8 M, P<0.05): 20%; increase in left ventricular pressure developed ([5]; infused at 4×10^−10 to 4×10^−6 M, values summated, average dosage approx 1×10^−8 M, P<0.05): 20%; acute cardiac contractility upon infusion (FIG. 38) ([5]; infusion vs baseline, p<0.05): statistically significant increase

Which “inhibition of the PKC isoforms” value (PKC isoforms) does the source give for `CNC[C@@H]1CCn2cc(c3ccccc32)C2=C(C(=O)NC2=O)c2cn(c3ccccc23)CCO1` [LY338522] here?
The value was “effective in inhibiting the PKC isoforms”.
